Test results reported in ChEMBL document CHEMBL1201861, “Genomics of Drug Sensitity in Cancer screening data, Wellcome Trust Sanger Institute”.

Legend:
Assay in all cases: cells
[1] = tested on: CP50-MEL-B; type: functional, cell-based, Homo sapiens; settings: Homo sapiens, CP50-MEL-B;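 also: growth inhibition of the human cell line, measured with a cell viability read-out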
Description: SANGER: Inhibition of human CP50-MEL-B cell growth in a cell viability assay.

[2] = tested on: D-502MG; type: functional, cell-based, Homo sapiens; settings: Homo sapiens, D-502MG
Description: SANGER: Inhibition of human D-502MG cell growth in a cell viability assay.

[3] = tested on: DJM-1; type: functional, cell-based, Homo sapiens; settings: Homo sapiens, DJM-1;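 also: growth inhibition of human DJM-1 cells, read out by a cell viability assay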
Description: SANGER: Inhibition of human DJM-1 cell growth in a cell viability assay.

[4] = tested on: DMS-79; type: functional, cell-based; settings: Homo sapiens;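 also: growth inhibition measured with a cell viability assay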
Description: SANGER: Inhibition of human DMS-79 cell growth in a cell viability assay.

[5] = tested on: DSH1; type: functional, cell-based, Homo sapiens; settings: Homo sapiens, DSH1;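 also: growth inhibition of human DSH1 cells, measured with a cell viability readout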
Description: SANGER: Inhibition of human DSH1 cell growth in a cell viability assay.

[6] = tested on: EM-2; type: functional, cell-based; settings: Homo sapiens;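 also: growth inhibition of EM-2 cells, read out with a cell viability assay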
Description: SANGER: Inhibition of human EM-2 cell growth in a cell viability assay.

[7] = tested on: GAMG; type: functional, cell-based, Homo sapiens; settings: Homo sapiens, GAMG;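 also: cell growth inhibition measured by a viability assay in the GAMG human cell line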
Description: SANGER: Inhibition of human GAMG cell growth in a cell viability assay.

[8] = tested on: HCC1395; type: functional, cell-based, Homo sapiens; settings: Homo sapiens, HCC1395;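 also: growth inhibition of HCC1395 cells, read out by a cell viability assay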
Description: SANGER: Inhibition of human HCC1395 cell growth in a cell viability assay.

[9] = tested on: HEC-1; type: functional, cell-based, Homo sapiens; settings: Homo sapiens, HEC-1;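 also: growth inhibition of the cell line, read out with a cell viability assay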
Description: SANGER: Inhibition of human HEC-1 cell growth in a cell viability assay.

[10] = tested on: HO-1-N-1; type: functional, cell-based, Homo sapiens; settings: Homo sapiens, HO-1-N-1;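 also: growth inhibition of human HO-1-N-1 cells, read out with a cell viability assay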
Description: SANGER: Inhibition of human HO-1-N-1 cell growth in a cell viability assay.

[11] = tested on: HOS; type: functional, cell-based, Homo sapiens; settings: Homo sapiens, HOS;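 also: growth inhibition of human HOS cells, read out with a cell viability assay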
Description: SANGER: Inhibition of human HOS cell growth in a cell viability assay.

[12] = tested on: HT-1376; type: functional, cell-based, Homo sapiens; settings: Homo sapiens, HT-1376
Description: SANGER: Inhibition of human HT-1376 cell growth in a cell viability assay.

[13] = tested on: IGROV-1; type: functional, cell-based, Homo sapiens; settings: Homo sapiens, IGROV-1;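 also: reduction of IGROV-1 cell growth, read out with a viability assay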
Description: SANGER: Inhibition of human IGROV-1 cell growth in a cell viability assay.

[14] = tested on: J-RT3-T3-5; type: functional, cell-based; settings: Homo sapiens;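 also: cell viability assay measuring growth inhibition of human J-RT3-T3-5 cells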
Description: SANGER: Inhibition of human J-RT3-T3-5 cell growth in a cell viability assay.

[15] = tested on: K562; type: functional, cell-based; settings: Homo sapiens
Description: SANGER: Inhibition of human K-562 cell growth in a cell viability assay.

[16] = tested on: KNS-42; type: functional, cell-based, Homo sapiens; settings: Homo sapiens, KNS-42;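 also: growth inhibition of KNS-42 cells, read out with a cell viability assay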
Description: SANGER: Inhibition of human KNS-42 cell growth in a cell viability assay.

[17] = tested on: KP-4; type: functional, cell-based, Homo sapiens; settings: Homo sapiens, KP-4; read-out: IC50;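 also: human KP-4 cells, with growth inhibition read out through a cell viability assay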
Description: SANGER: Inhibition of human KP-4 cell growth in a cell viability assay.

[18] = tested on: KYSE-70 cell line; type: functional, cell-based, Homo sapiens; settings: Homo sapiens, KYSE-70;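 also: cell viability assay read-out, with IC50 expressing suppression of KYSE-70 cell growth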
Description: SANGER: Inhibition of human KYSE-70 cell growth in a cell viability assay.

[19] = tested on: L-363; type: functional, cell-based; settings: Homo sapiens
Description: SANGER: Inhibition of human L-363 cell growth in a cell viability assay.

[20] = tested on: LXF-289 cell line; type: functional, cell-based, Homo sapiens; settings: Homo sapiens, LXF-289
Description: SANGER: Inhibition of human LXF-289 cell growth in a cell viability assay.

[21] = tested on: MDA-MB-415; type: functional, cell-based; settings: Homo sapiens
[22] = tested on: MMAC-SF; type: functional, cell-based, Homo sapiens; settings: Homo sapiens, MMAC-SF;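 also: growth inhibition of human MMAC-SF cells, read out with a cell viability assay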
Description: SANGER: Inhibition of human MMAC-SF cell growth in a cell viability assay.

[23] = tested on: MV4-11; type: functional, cell-based, MV-4-11; settings: Homo sapiens;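 also: cell viability readout measuring growth inhibition of human MV-4-11 cells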
Description: SANGER: Inhibition of human MV-4-11 cell growth in a cell viability assay.

[24] = tested on: NB17; type: functional, cell-based; settings: Homo sapiens;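 also: growth inhibition of NB17 cells, read out with a cell viability assay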
Description: SANGER: Inhibition of human NB17 cell growth in a cell viability assay.

[25] = tested on: NCI-H2087; type: functional, cell-based, Homo sapiens; settings: Homo sapiens, NCI-H2087;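 also: growth inhibition determined with a cell viability readout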
Description: SANGER: Inhibition of human NCI-H2087 cell growth in a cell viability assay.

[26] = tested on: NCI-H2126; type: functional, cell-based, Homo sapiens; settings: Homo sapiens, NCI-H2126;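 also: growth inhibition of the cancer cell line, determined with a cell viability readout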
Description: SANGER: Inhibition of human NCI-H2126 cell growth in a cell viability assay.

[27] = tested on: NCI-H2452; type: functional, cell-based, Homo sapiens; settings: Homo sapiens, NCI-H2452;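 also: growth inhibition of NCI-H2452 cells, read out with a cell viability assay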
Description: SANGER: Inhibition of human NCI-H2452 cell growth in a cell viability assay.

[28] = tested on: NCI-H650; type: functional, cell-based, Homo sapiens; settings: Homo sapiens, NCI-H650;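 also: growth inhibition of NCI-H650 cells, read out by a viability assay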
Description: SANGER: Inhibition of human NCI-H650 cell growth in a cell viability assay.

[29] = tested on: SNU1; type: functional, cell-based; settings: Homo sapiens;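 also: growth inhibition of human NCI-SNU-1 cells, measured with a cell viability assay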
Description: SANGER: Inhibition of human NCI-SNU-1 cell growth in a cell viability assay.

[30] = tested on: OCI-AML2; type: functional, cell-based; settings: Homo sapiens;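 also: growth inhibition of OCI-AML2 cells, read out with a cell viability assay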
Description: SANGER: Inhibition of human OCI-AML2 cell growth in a cell viability assay.

[31] = tested on: OCUB-M; type: functional, cell-based, Homo sapiens; settings: Homo sapiens, OCUB-M;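 also: growth inhibition of the cancer cell line, read out through a cell viability assay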
Description: SANGER: Inhibition of human OCUB-M cell growth in a cell viability assay.

[32] = tested on: RCM-1; type: functional, cell-based, Homo sapiens; settings: Homo sapiens, RCM-1;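 also: growth inhibition of the RCM-1 line, determined with a cell viability readout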
Description: SANGER: Inhibition of human RCM-1 cell growth in a cell viability assay.

[33] = tested on: RPMI-2650; type: functional, cell-based, Homo sapiens; settings: Homo sapiens, RPMI-2650
Description: SANGER: Inhibition of human RPMI-2650 cell growth in a cell viability assay.

[34] = tested on: Ramos-2G6-4C10; type: functional, cell-based; settings: Homo sapiens;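 also: growth inhibition of the cell line, measured by a cell viability read-out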
Description: SANGER: Inhibition of human Ramos-2G6-4C10 cell growth in a cell viability assay.

[35] = tested on: S-117; type: functional, cell-based, Homo sapiens; settings: Homo sapiens, S-117
Description: SANGER: Inhibition of human S-117 cell growth in a cell viability assay.

[36] = tested on: SK-MEL-24; type: functional, cell-based; settings: Homo sapiens;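 also: growth inhibition read out by a cell viability assay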
Description: SANGER: Inhibition of human SK-MEL-24 cell growth in a cell viability assay.

[37] = tested on: SK-N-AS; type: functional, cell-based, Homo sapiens; settings: Homo sapiens, SK-N-AS;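 also: growth inhibition of human SK-N-AS cells, measured with a cell viability assay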
Description: SANGER: Inhibition of human SK-N-AS cell growth in a cell viability assay.

[38] = tested on: SK-N-DZ; type: functional, cell-based, Homo sapiens; settings: Homo sapiens, SK-N-DZ;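 also: growth inhibition of the cancer cell line, read out through a viability assay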
Description: SANGER: Inhibition of human SK-N-DZ cell growth in a cell viability assay.

[39] = tested on: SW1463; type: functional, cell-based, Homo sapiens; settings: Homo sapiens, SW1463;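 also: growth inhibition of SW1463 cells, determined with a cell viability assay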
Description: SANGER: Inhibition of human SW1463 cell growth in a cell viability assay.

[40] = tested on: SW872; type: functional, cell-based, Homo sapiens; settings: Homo sapiens, SW872;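 also: growth inhibition of SW872 cells, read out by a viability assay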
Description: SANGER: Inhibition of human SW872 cell growth in a cell viability assay.

[41] = tested on: CWR22R; type: functional, cell-based, Homo sapiens; settings: Homo sapiens, 22Rv1;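 also: growth inhibition of 22Rv1 cells, read out with a cell viability assay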
Description: SANGER: Inhibition of human 22RV1 cell growth in a cell viability assay.

[42] = tested on: A2780; type: functional, cell-based, Homo sapiens; settings: Homo sapiens, A2780;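 also: growth inhibition of A2780 cells, read out with a cell viability assay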
Description: SANGER: Inhibition of human A2780 cell growth in a cell viability assay.

[43] = tested on: A3-KAW; type: functional, cell-based; settings: Homo sapiens;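 also: growth inhibition of human A3-KAW cells, read out with a cell viability assay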
Description: SANGER: Inhibition of human A3-KAW cell growth in a cell viability assay.

[44] = tested on: AU565; type: functional, cell-based, Homo sapiens; settings: Homo sapiens, AU565;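 also: cell viability assay measuring growth inhibition of human AU565 cells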
Description: SANGER: Inhibition of human AU565 cell growth in a cell viability assay.

[45] = tested on: BB30-HNC; type: functional, cell-based, Homo sapiens; settings: Homo sapiens, BB30-HNC;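 also: growth inhibition of the cultured cell line, read out by a cell viability assay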
Description: SANGER: Inhibition of human BB30-HNC cell growth in a cell viability assay.

[46] = tested on: BXPC-3; type: functional, cell-based, Homo sapiens; settings: Homo sapiens, BXPC-3;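 also: growth inhibition of human BxPC-3 cells, read out by a cell viability assay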
Description: SANGER: Inhibition of human BxPC-3 cell growth in a cell viability assay.

[47] = tested on: C-33-A; type: functional, cell-based, Homo sapiens; settings: Homo sapiens, C-33-A;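 also: cell viability assay measuring growth inhibition of C-33-A cells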
Description: SANGER: Inhibition of human C-33-A cell growth in a cell viability assay.

[48] = tested on: C3A; type: functional, cell-based, Homo sapiens; settings: Homo sapiens, C3A;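 also: growth inhibition of C3A human cells, quantified with a cell viability readout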
Description: SANGER: Inhibition of human C3A cell growth in a cell viability assay.

[49] = tested on: CAL-51; type: functional, cell-based, Homo sapiens; settings: Homo sapiens, CAL-51;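 also: human CAL-51 cell line, growth inhibition read out via a cell viability assay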
Description: SANGER: Inhibition of human CAL-51 cell growth in a cell viability assay.

[50] = tested on: TGBC24TKB; type: functional, cell-based, Homo sapiens; settings: Homo sapiens, TGBC24TKB;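 also: growth inhibition of human TGBC24TKB cells, read out with a cell viability assay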
Description: SANGER: Inhibition of human TGBC24TKB cell growth in a cell viability assay.

[51] = tested on: UMC-11; type: functional, cell-based, Homo sapiens; settings: Homo sapiens, UMC-11;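 also: growth inhibition of UMC-11 cells, read out with a cell viability assay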
Description: SANGER: Inhibition of human UMC-11 cell growth in a cell viability assay.

[52] = tested on: COLO-684; type: functional, cell-based; settings: Homo sapiens
Description: SANGER: Inhibition of human COLO-684 cell growth in a cell viability assay.

SMILES: CN(C)C/C=C/C(=O)Nc1cc2c(Nc3ccc(F)c(Cl)c3)ncnc2cc1O[C@H]1CCOC1 [AFATINIB]
- IC50 [1]: > 500 nM
- IC50 [2]: > 500 nM
- IC50 [3]: > 500 nM
- IC50 [4]: > 500 nM
- IC50 [5]: 33.1 nM
- IC50 [6]: > 500 nM
- IC50 [7]: > 500 nM
- IC50 [8]: > 500 nM
- IC50 [9]: > 500 nM
- IC50 [10]: 279 nM
- IC50 [11]: > 500 nM
- IC50 [12]: > 500 nM
- IC50 [13]: 260 nM
- IC50 [14]: > 500 nM
- IC50 [15]: > 500 nM
- IC50 [16]: > 500 nM
- IC50 [17]: > 500 nM
- IC50 [18]: > 500 nM
- IC50 [19]: > 500 nM
- IC50 [20]: > 500 nM
- IC50 [21]: > 500 nM
- IC50 [22]: > 500 nM
- IC50 [23]: > 500 nM
- IC50 [24]: > 500 nM
- IC50 [25]: > 500 nM
- IC50 [26]: > 500 nM
- IC50 [27]: > 500 nM
- IC50 [28]: > 500 nM
- IC50 [29]: > 500 nM
- IC50 [30]: > 500 nM
- IC50 [31]: > 500 nM
- IC50 [32]: > 500 nM
- IC50 [33]: > 500 nM
- IC50 [34]: > 500 nM
- IC50 [35]: > 500 nM
- IC50 [36]: > 500 nM
- IC50 [37]: > 500 nM
- IC50 [38]: > 500 nM
- IC50 [39]: > 500 nM
- IC50 [40]: > 500 nM
- IC50 [41]: > 500 nM
- IC50 [42]: > 500 nM
- IC50 [43]: > 500 nM
- IC50 [44]: 85 nM
- IC50 [45]: 166 nM
- IC50 [46]: > 500 nM
- IC50 [47]: > 500 nM
- IC50 [48]: > 500 nM
- IC50 [49]: > 500 nM
- IC50 [50]: > 500 nM
- IC50 [51]: > 500 nM
- IC50 [52]: > 500 nM

SMILES: O=C(NOCC1CC1)c1ccc(F)c(F)c1Nc1ccc(I)cc1Cl [CI-1040]
- IC50 [1]: 173 nM
- IC50 [2]: > 10000 nM
- IC50 [3]: > 10000 nM
- IC50 [4]: > 10000 nM
- IC50 [5]: > 10000 nM
- IC50 [6]: 2070 nM
- IC50 [7]: 4020 nM
- IC50 [8]: > 10000 nM
- IC50 [9]: > 10000 nM
- IC50 [10]: 1520 nM
- IC50 [11]: 5630 nM
- IC50 [12]: > 10000 nM
- IC50 [13]: 4450 nM
- IC50 [14]: > 10000 nM
- IC50 [15]: 8840 nM
- IC50 [16]: > 10000 nM
- IC50 [17]: > 10000 nM
- IC50 [18]: > 10000 nM
- IC50 [19]: 2740 nM
- IC50 [20]: > 10000 nM
- IC50 [21]: > 10000 nM
- IC50 [22]: 110 nM
- IC50 [23]: 6230 nM
- IC50 [24]: > 10000 nM
- IC50 [25]: 3850 nM
- IC50 [26]: 9010 nM
- IC50 [27]: > 10000 nM
- IC50 [28]: > 10000 nM
- IC50 [29]: 754 nM
- IC50 [30]: > 10000 nM
- IC50 [31]: > 10000 nM
- IC50 [32]: 1240 nM
- IC50 [33]: > 10000 nM
- IC50 [34]: > 10000 nM
- IC50 [35]: > 10000 nM
- IC50 [36]: 328 nM
- IC50 [37]: 1080 nM
- IC50 [38]: > 10000 nM
- IC50 [39]: 1340 nM
- IC50 [40]: > 10000 nM
- IC50 [41]: > 10000 nM
- IC50 [42]: 498 nM
- IC50 [43]: > 10000 nM
- IC50 [44]: > 10000 nM
- IC50 [45]: > 10000 nM
- IC50 [46]: > 10000 nM
- IC50 [47]: > 10000 nM
- IC50 [48]: > 10000 nM
- IC50 [49]: > 10000 nM
- IC50 [50]: > 10000 nM
- IC50 [51]: > 10000 nM
- IC50 [52]: > 10000 nM
